Values quoted from earlier work in paper PMC8869242 (Biomedicines, 2022).
Read-outs that look alike come from different tables or passages of the source.

Experiments:
[1] = system: Ehrlich ascites carcinoma (EAC); settings: cited from earlier work; for mice died during treatment: two injections per week for 2 weeks
[2] = system: endothelial cells (HUVEC); parameters: method as in PMID 34339726; settings: cited from earlier work
CAM = system: CAM; parameters: method as in PMID 34339726; settings: concentration of 5 mg/mL; cited from earlier work

## O.O.O.O.O=C1[N-]S(=O)(=O)c2ccccc21.O=C1c2ccccc2S(=O)(=O)[N]1[Pd+].c1ccc(-c2cccc(-c3ccccn3)n2)nc1 [[Pd(sac)(terpy)](sac)·4H2O]
[1]; i.p. 2 mg/kg, two injections per week for 2 weeks (cumulative 8 mg/kg)
  tumor volume reduction: 67.5%
[1]; i.p. 2 mg/kg
  mice died during treatment: 1 of 10

## O.O.O=C1[N-]S(=O)(=O)c2ccccc21.[Cl][Pd+].c1ccc(-c2cccc(-c3ccccn3)n2)nc1 [[PdCl(terpy)](sac)·2H2O]
[2]
  concentration range showing inhibition of migration of endothelial cells (HUVEC): 12.5 to 50 µM
[1]; 3 mg/kg, two injections per week for 2 weeks (cumulative 12 mg/kg)
  tumor volume reduction: 69.8%
[1]; 3 mg/kg
  mice died during treatment: 1 of 9
CAM
  angiogenesis in CAM assay: inhibition of angiogenesis
